28 compounds from patent publication US20250129086A1, “COMPOUND FOR DEGRADING EGFR PROTEIN AND USE THEREOF” (TYK MEDICINES, INC., priority 2021, published 2025) can be followed below.

Format in all cases: cell-based, human
In experiment [1] the test system is H1975 (EGFR L858R/T790M double mutation). Description: Cell antiproliferative assay (CTG, 72 h), H1975. The conditions noted are these: Homo sapiens, NCI-H1975, 72 h, Table 2, H1975 cells. Here is the method: (§1) Test Example 1 Cell Antiproliferative Assay
(§2) H1975: with EGFR: L858R/T790M double mutation; PC-9 with EGFR exon 19 deletion, HCC827 with exon 19 deletion mutation. CellCounting-Lite2.0, Trypsin EDTA, 37° C. CO2 incubator, cell counter, EnVision Serial No.1050454. II. Experimental preparation:
(§3) • (A) Trypsin EDTA was used to digest log-phase cells, medium was added to terminate the reaction, and a cell suspension was made by blowing and mixing with a pipette. • (B) Cell concentration was determined using Vi-cell, and a suspension of 15,000-25,000 cells per milliliter was made depending on the purpose of the experiment and the characteristics of the cells. • (C) After the cell suspension was prepared, it was gently mixed and 100 microliters per well was added so that the density of cells to be tested was 1500-2500 per well.
(§4) • (A) About 2 mg of compound was weighed, and the volume of DMSO required was calculated according to the formula: compound mass (mg)*compound purity (%)/compound molecular weight*1000 • (B) The inoculated cell culture plates were incubated in an incubator and the compounds with concentration gradient were added after about 24 hours. • (C)10 Mm of compound stock solution was diluted to […] with medium, and 50 Mm of compound solution was added sequentially to the second column of the deep-well plate, and […] of medium containing 0.5% DMSO was added to the third to eleventh columns. • (D) Gradient dilution: 125 μl of solution was pipetted from the second column and added to the third column, after mixing; another 125 μl of solution was pipetted from the third column and added to the fourth column, and the operation was repeated until the tenth column. • (E)25 μl of compound was pipetted from the deep-well plate into a 96-well culture plate using a multichannel pipette, and each compound was repeated three times on the 96-well plate. A maximum concentration of 10,000 nm with concentration gradient of 1:4 was eventually formed on the 96-well plate.
(§5) • (A)96-well plates were incubated in an incubator for 72 h. The effect of the compounds was observed under an inverted microscope. • (B)25 μl of CTG solution was added to each well, the plate was put on shaker for 10 minutes and the […] of each well was read.
(§6) The cell viability rate (% Cell Viability) was calculated using the following formula: • % Cell Viability=100%×(Lum_Sample-Lum_LC)/(Lum_HC-Lum_LC) • Lum_HC: Cell reading of 0.1% DMSO control • Lum_Sample: Cell reading with compound added • Lum_LC: Reading of Blank media • IC50 values were obtained by curve fitting with GraphPad Prism 8 software.

For experiment [2], the system named is PC-9 (EGFR exon 19 deletion). As to the kind of experiment: Cell antiproliferative assay (CTG, 72 h), PC-9. As to conditions: Homo sapiens, PC-9, 72 h, Table 2, PC-9 cells. Here is the method: as §1, §2, §3, §4, §5, §6
Experiment [3] concerns HCC827 (exon 19 deletion mutation). As to the kind of experiment: Cell antiproliferative assay (CTG, 72 h), HCC827. The conditions noted are these: Homo sapiens, HCC827, 72 h, Table 2, HCC827 cells. How it is done:
as §1, §2, §3, §4, §5, §6

Broadly, the IC50 is the concentration that gives 50% inhibition. Low values mean inhibition by little substance, high ones a need for much substance. Take `COc1cc(N2CCC(CN3CCN(c4ccc5c(c4)C(=O)N(C4CCC(=O)NC4=O)C5=O)CC3)CC2)ccc1Nc1ncc(Cl)c(Nc2ccccc2C(C)=O)n1` (stereo not drawn) [Compound T-225]: the IC50 in experiment [1] was 100 to 1000 nM; in experiment [2] it was no less than 1000 nM; in experiment [3] it was no less than 1000 nM.
As to `COc1cc(N2CCN(CC3CCN(c4ccc5c(c4)C(=O)N(C4CCC(=O)NC4=O)C5=O)CC3)CC2)ccc1Nc1ncc(Cl)c(Nc2ccccc2C(C)=O)n1` (stereo not drawn) [Compound T-226], the IC50 in experiment [1] was 100 to 1000 nM; in experiment [2] it was no less than 1000 nM; in experiment [3], 100 to 1000 nM.
Consider `COc1cc(N2CCN(C(=O)CC3CCN(c4ccc5c(c4)C(=O)N(C4CCC(=O)NC4=O)C5=O)CC3)CC2)ccc1Nc1ncc(Cl)c(Nc2ccccc2C(C)=O)n1` (stereo not drawn) [Compound T-231], for which the IC50 in experiment [1] is 100 to 1000 nM; in experiment [2], no less than 1000 nM; in experiment [3], 10 to 100 nM.
The corresponding values for `C=CC(=O)Nc1cc(Nc2nccc(-c3cn(C)c4ccccc34)n2)c(OC)cc1N(C)CCN(C)CC(=O)N1CCC(c2ccc(NC3CCC(=O)NC3=O)cc2)CC1` (stereo not drawn) [Compound T-237] are no less than 1000 nM, 100 to 1000 nM and 100 to 1000 nM.
The corresponding values for `COc1cc(N2CCN(c3ncc(Cl)c(Nc4ccccc4C(C)=O)n3)CC2)ncc1NC(=O)CN1CCC(c2ccc(NC3CCC(=O)NC3=O)cc2)CC1` (stereo not drawn) [Compound T-239] are no less than 1000 nM, no less than 1000 nM and 100 to 1000 nM.
On to `COc1cc(N2CCN(C(=O)CN3CCC(c4ccc(NC5CCC(=O)NC5=O)cc4)CC3)CC2)c(C)cc1Nc1ncc(Cl)c(Nc2ccccc2C(=O)N(C)C)n1` (stereo not drawn) [Compound T-241], for which the IC50 in experiment [1] is no more than 10 nM; in experiment [2], 100 to 1000 nM; in experiment [3], 100 to 1000 nM.
`COc1cc(N2CCN(C(=O)CN3CCC(c4ccc(NC5CCC(=O)NC5=O)cc4)C3)CC2)ccc1Nc1ncc(Cl)c(Nc2ccccc2C(C)=O)n1` (stereo not drawn) [Compound T-242]: the concentration for half-maximal inhibition (IC50) in experiment [1], in experiment [2] and in experiment [3] was 100 to 1000 nM throughout.
As to `COc1cc(N2CCN(C(=O)CN3CCC(c4ccc(NC5CCC(=O)NC5=O)cc4)CC3)CC2)ccc1Nc1ncc(Cl)c(Nc2ccc(Cl)cc2C(C)(C)O)n1` (stereo not drawn) [Compound T-243], the results for the IC50 in experiment [1], in experiment [2] and in experiment [3] were no more than 10 nM, 10 to 100 nM and 10 to 100 nM, respectively.
Consider `COc1cc(N2CCN(C(=O)CN3CCC(c4ccc(NC5CCC(=O)NC5=O)cc4)CC3)CC2)ncc1Nc1ncc(Cl)c(Nc2ccccc2C(C)=O)n1` (stereo not drawn) [Compound T-244], for which the 50% inhibitory concentration (IC50) in experiment [1], in experiment [2] and in experiment [3] was 10 to 100 nM throughout.
As for `COc1ccc(Nc2nc(Nc3ccc(N4CCN(C(=O)CN5CCC(c6ccc(NC7CCC(=O)NC7=O)cc6)CC5)CC4)cc3OC)ncc2Cl)c(C(C)=O)c1` (stereo not drawn) [Compound T-249], the half-inhibitory concentration (IC50) was no more than 10 nM in experiment [1], 10 to 100 nM in experiment [2] and 10 to 100 nM in experiment [3].
As for `CNC(=O)c1ccccc1Nc1nc(Nc2cc(C)c(N3CCN(C(=O)CN4CCC(c5ccc(NC6CCC(=O)NC6=O)cc5)CC4)CC3)cc2OC)ncc1Br` (stereo not drawn) [Compound T-255], the concentration for half-maximal inhibition (IC50) in experiment [1] is no more than 10 nM; in experiment [2], 10 to 100 nM; in experiment [3] it was 10 to 100 nM.
`COc1cc(N2CCN(C(=O)CN3CCC(c4ccc(NC5CCC(=O)NC5=O)cc4)CC3)CC2)ccc1Nc1ncc(Cl)c(Nc2ccccc2C(=O)NC(C)C)n1` (stereo not drawn) [Compound T-259]: the IC50 is 10 to 100 nM in experiment [1], 100 to 1000 nM in experiment [2] and 100 to 1000 nM in experiment [3].
Regarding `COc1cc(N2CCN(C(=O)CN3CCC(c4ccc(NC5CCC(=O)NC5=O)cc4)CC3)CC2)ccc1Nc1ncc(C(F)(F)F)c(Nc2ccccc2C(=O)Nc2ccccc2)n1` (stereo not drawn) [Compound T-267], the 50% inhibitory concentration (IC50) in experiment [1], in experiment [2] and in experiment [3] was 100 to 1000 nM in each case.
As to `COc1cc(N2CCN(C(=O)CN3CCC(c4ccc(NC5CCC(=O)NC5=O)cc4)CC3)CC2)ccc1Nc1ncc(Cl)c(Nc2cccc3c2C(=O)N(C)C3)n1` (stereo not drawn) [Compound T-268], the IC50 in experiment [1], in experiment [2] and in experiment [3] was 10 to 100 nM each time.
Regarding `COc1cc(N2CCN(C(=O)CN3CCC(c4ccc(NC5CCC(=O)NC5=O)cc4)CC3)CC2)ccc1Nc1ncc(Br)c(Nc2cccc3c2C(=O)NC3)n1` (stereo not drawn) [Compound T-272], the concentration for half-maximal inhibition (IC50) in experiment [1] was no more than 10 nM; in experiment [2], 10 to 100 nM; in experiment [3], 10 to 100 nM.
For `COc1cc(N2CCN(C(=O)CN3CCC(c4ccc(NC5CCC(=O)NC5=O)cc4)CC3)CC2)c(C#N)cc1Nc1ncc(Cl)c(Nc2ccccc2C(C)=O)n1` (stereo not drawn) [Compound T-282], the concentration for half-maximal inhibition (IC50) in experiment [1], in experiment [2] and in experiment [3] was 10 to 100 nM in each case.
In the case of `CNC(=O)c1ccccc1Nc1nc(Nc2cc(C#N)c(N3CCN(C(=O)CN4CCC(c5ccc(NC6CCC(=O)NC6=O)cc5)CC4)CC3)cc2OC)ncc1Cl` (stereo not drawn) [Compound T-283], the half-inhibitory concentration (IC50) in experiment [1] is no more than 10 nM; in experiment [2] it was 10 to 100 nM; in experiment [3], 10 to 100 nM.
For the compound `COc1cc(N2CCN(C(=O)CN3CCC(c4ccc(NC5CCC(=O)NC5=O)cc4)CC3)CC2)c(C#N)cc1Nc1ncc(Br)c(Nc2ccccc2C(C)=O)n1` (stereo not drawn) [Compound T-286], the half-inhibitory concentration (IC50) in experiment [1], in experiment [2] and in experiment [3] was 10 to 100 nM in each case.
Consider `COc1cc(N2CCN(C(=O)CN3CCC(c4ccc(NC5CCC(=O)NC5=O)cc4)CC3)CC2)c(C(F)(F)F)cc1Nc1ncc(Br)c(Nc2ccccc2C(C)=O)n1` (stereo not drawn) [Compound T-289], for which the IC50 in experiment [1], in experiment [2] and in experiment [3] was 10 to 100 nM throughout.
On to `CNC(=O)c1ccccc1Nc1nc(Nc2cc(C(F)(F)F)c(N3CCN(C(=O)CN4CCC(c5ccc(NC6CCC(=O)NC6=O)cc5)CC4)CC3)cc2OC)ncc1Br` (stereo not drawn) [Compound T-292], for which the IC50 in experiment [1] is no more than 10 nM; in experiment [2], 10 to 100 nM; in experiment [3], 10 to 100 nM.
`CNC(=O)c1ccccc1Nc1nc(Nc2ccc(N3CCN(C(=O)CN4CCC(c5ccc(NC6CCC(=O)NC6=O)cc5F)CC4)CC3)cc2OC)ncc1Br` (stereo not drawn) [Compound T-295]: the figures for the IC50 in experiment [1], in experiment [2] and in experiment [3] were no more than 10 nM, 10 to 100 nM and 10 to 100 nM, respectively.
For `CNC(=O)c1ccccc1Nc1nc(Nc2ccc(N3CCN(C(=O)CC4(F)CCN(c5ccc(NC6CCC(=O)NC6=O)cc5)CC4)CC3)cc2OC)ncc1Cl` (stereo not drawn) [Compound T-300], the half-inhibitory concentration (IC50) in experiment [1], in experiment [2] and in experiment [3] was 10 to 100 nM throughout.
Regarding `COc1cc(N2CCN(C(=O)CC3(F)CCN(c4ccc(NC5CCC(=O)NC5=O)cc4)CC3)CC2)ccc1Nc1ncc(Cl)c(Nc2ccccc2C(C)=O)n1` (stereo not drawn) [Compound T-303], the IC50 in experiment [1], in experiment [2] and in experiment [3] was 10 to 100 nM throughout.
With `CNC(=O)c1ccccc1Nc1nc(Nc2ccc(N3CCN(C(=O)CN4CCC(c5ccc(NC6CCC(=O)NC6=O)cc5)C(F)(F)C4)CC3)cc2OC)ncc1Br` (stereo not drawn) [Compound T-313], the values for the IC50 in experiment [1], in experiment [2] and in experiment [3] were no more than 10 nM, 10 to 100 nM and 10 to 100 nM, respectively.
With `COc1cc(N2CCN(C(=O)CN3CCC(c4ccc(NC5CCC(=O)NC5=O)cc4)CC3)CC2)c(C)cc1Nc1ncc(Cl)c(Nc2ccccc2P(C)(C)=O)n1` (stereo not drawn) [Compound T-327], the 50% inhibitory concentration (IC50) in experiment [1] fell in the range of 10 to 100 nM; in experiment [2] it was 100 to 1000 nM; in experiment [3], 100 to 1000 nM.
As to `O=C1CCC(Nc2ccc(C3CCN(CC(=O)N4CCN(c5ccc(Nc6ncc(Cl)c(Nc7ccccc7)n6)c(Cl)c5)CC4)CC3)cc2)C(=O)N1` (stereo not drawn) [Compound T-328], the 50% inhibitory concentration (IC50) in experiment [1], in experiment [2] and in experiment [3] was 100 to 1000 nM in each case.
In the case of `CP(C)(=O)c1ccccc1Nc1nc(Nc2ccc(N3CCN(C(=O)CN4CCC(c5ccc(NC6CCC(=O)NC6=O)cc5)CC4)CC3)cc2Cl)ncc1Cl` (stereo not drawn) [Compound T-330], the half-inhibitory concentration (IC50) in experiment [1], in experiment [2] and in experiment [3] was 100 to 1000 nM in each case.
In the case of `COc1cc(C2CCN(C(=O)CN3CCC(c4ccc(NC5CCC(=O)NC5=O)cc4)CC3)CC2)ccc1Nc1ncc(Cl)c(Nc2ccccc2P(C)(C)=O)n1` (stereo not drawn) [Compound T-331], the IC50 in experiment [1] is 100 to 1000 nM; in experiment [2], 100 to 1000 nM; in experiment [3], no less than 1000 nM.
